The record followed here is patent publication US9958451B2, “Near-infrared fluorescent dyes with large stokes shifts” (Portland State University, priority 2011, dated 2018).

The nature of data set [1]: Emission in blood (whole porcine blood in buffer). Here is the method: Compound 15d (Table 1) was diluted to 40 μM in 50% DMSO:50% 25 mM pH 9 phosphate buffer. […] Emission remained stable for at least 1 hr. The absorption profile matches the output of a laser pointer (635-670 nm; max output <5 mW).
Its absorbance and fluorescence spectra faded over time, but remained visible after about an hour (although with only 10-20% of its original emission intensity). Molecular modeling has shown favorable structural interactions of compounds 5f and 24 with glutathione (FIG. 12—compound 24).
Spectral behavior of compound 15g (type [c] annulated seminaphtho-rhodamine methyl ester (free amine) with the 3-1 transposition) was investigated to determine its potential for sensing use in whole blood. Solutions of compound 15g in 10% or 90% by volume whole blood (porcine blood in Na-EDTA, Lampire Biological Laboratories) were investigated in a 3×3 mm cell. The fluorophore was first dissolved in 50 mM, pH 7.4 phosphate buffer to ensure complete dissolution, and in the case of 90% whole blood, this stock solution was mixed with whole blood in a 1:9 ratio. In the case of 10% whole blood, 1 part whole blood was added to 9 parts of an appropriately diluted (with deionized water) solution of compound 15g stock. In both cases, the final concentration of compound 15g was 150 μM with a final phosphate buffer concentration of 5 mM. […] Throughout much of the spectrum, the dye produces a greater absorbance than the blood alone. The change in absorbance between the two spectra provides the effective absorbance of the dye. […] The broad absorption and large Stokes shift of this dye allows significant excitation with greater than 50% efficiency at wavelengths beyond that of the major hemoglobin peaks in blood.

Data set [2] is described as follows: UV-visible absorbance spectroscopy, 15 μM in 90% aqueous, 10% DMSO. The format is physicochemical. Particulars: for Red shift of absorption spectra from 3-1 transposition versus known regiochemistry: depending on the ionization state. How it is done:
Compounds 21 and 7 were characterized by UV-visible spectroscopy (FIG. 15). Absorbance was measured using 15 μM solutions of each compound in a solution that was 90% aqueous, 10% DMSO. The peaks at 600 nm (light dashed line) and 675 nm (light solid line) represent the dianions of compounds 21 and 7, respectively, in NaOH (pH 12). The peaks at 590 nm (heavy dashed line) and 650 nm (heavy solid line) represent a mix of mono- and dianions of compound 21 at pH 7.4 and predominantly monoanions of compound 7 at pH 9, respectively.
Compounds 22 and 8 were characterized by UV-visible spectroscopy (FIG. 16). Absorbance was measured using 15 μM solutions of each compound in a solution that was 90% aqueous, 10% DMSO. The peaks at 610 nm (light dashed line) and 685 nm (light solid line) represent the anions of compounds 22 and 8, respectively, in NaOH (pH 12). The peaks at 605 nm (heavy dashed line) and 805 nm (heavy solid line) represent the neutral forms of compounds 22 and 8 at pH 7.4, respectively.
Compounds 20a and 15a were characterized by UV-visible spectroscopy (FIG. 17). Absorbance was measured using 15 μM solutions of each compound in a solution that was 90% aqueous, 10% DMSO. The peaks at 545 nm (light dashed line) and 595 nm (light solid line) represent the respective anions, compounds 20c and 15h, in NaOH (pH 12).
Compound 15b (free amino) was characterized by UV-visible spectroscopy (FIG. 18), and compared to C.SNARF-5 (literature, SNARF=seminaphthorhodafluor). Absorbance was measured using a 15 μM solution of compound 15b in a solution that was 90% aqueous, 10% DMSO. The peak at 535 nm (heavy line) represents the predominantly phenolic form of 15b at pH 6. The peak at 615 nm (light line) represents the phenoxide of compound 15b at in NaOH (pH12). In comparison, C.SNARF-5 produces a peak at 550 nm (anionic form) and a peak at 485 nm (neutral form) (Whitaker et al., Anal. Biochem. 1991, 194, 330-344).
Absorbance was measured using 15 μM solutions of compound 15d in a solution that was 90% aqueous, 10% DMSO. The peak at 570 nm (heavy line) represents the predominantly neutral form of 15d at pH 6. The peak at 630 nm (light line) represents the phenoxide of compound 15d in NaOH (pH 12).
Compounds 20b and 15g were characterized by UV-visible spectroscopy (FIG. 20). Absorbance was measured using 15 μM solutions of each compound in a solution that was 90% aqueous, 10% DMSO. The peaks at 540 nm (dashed line) and 570 nm (solid line) represent the cations of compounds 20b and 15g, respectively, at pH 7.4.

Data set [3] in a line: Absorbance and fluorescence in methanol. The format is physicochemical. Here is the method:
Absorbance and fluorescence of compounds 22 and 8 also were measured in methanol. […] Thus, placement of the hydroxyl group proximal to the xanthene internal oxygen in compound 8 produced a bathochromic shift of 103 nm in the absorption spectrum. The transposition also imparted a corresponding shift in the excitation spectrum, and a large bathochromic shift of 128 nm in the fluorescence emission. Importantly, compound 8 absorbs and emits in the near-infrared with absorption and emission maxima of 701 nm and 816 nm, respectively.
Absorbance and fluorescence of compounds 20a and 15a also were measured in methanol. […] Thus, placement of the hydroxyl group proximal to the xanthene internal oxygen in compound 15a produced a bathochromic shift of 15 nm in the absorbance spectrum. The transposition also imparted a corresponding shift in the excitation spectrum, and a large bathochromic shift of 32 nm in the fluorescence emission.

A short description of data set [4]: Fluorescence emission spectra, 15 μM in 90% aqueous, 10% DMSO. The format is physicochemical. Conditions: for Red-shifted emission from 3-1 transposition versus known regiochemistry: longest wavelength-emitting species. How it is done: Compounds 21 and 7 also were characterized by their fluorescence emission spectra. Fluorescence was measured using 15 μM solutions of each compound in a solution that was 90% aqueous, 10% DMSO. For compound 21, the longest wavelength emission observed from the dianions occurred near 680 nm at pH 9. For compound 7 (transposed), the longest wavelength emission observed from the monoanion occurred near 800 nm at pH 9.
Compounds 22 and 8 also were characterized by their fluorescence emission spectra. Fluorescence was measured using 15 μM solutions of each compound in a solution that was 90% aqueous, 10% DMSO For compound 22, the longest wavelength emission observed from the anion occurred near 690 nm at pH 9. […] Given the greater than 800 nm absorbance peak and the typically large Stokes shifts observed in this class of compounds, it is likely that the emission was beyond the working range of the instrument (>850 nm).
Compounds 20 and 15a also were characterized by their fluorescence emission spectra. Fluorescence was measured using 15 μM solutions of each compound in a solution that was 90% aqueous, 10% DMSO. For compound 20a, the longest wavelength emission observed from its corresponding anion, compound 20c, occurred near 640 nm in NaOH (pH 12). For compound 15a (transposed), the longest wavelength emission observed from the corresponding anion, compound 15h, occurred near 760 nm in NaOH.
Compound 15b also was characterized by its fluorescence emission spectrum and compared to C.SNARF-5. Fluorescence was measured using a 15 μM solution of compound 15b in a solution that was 90% aqueous, 10% DMSO. For C.SNARF-5, the longest wavelength emission observed from the anion occurred near 632 nm (Whitaker et al., Anal. Biochem. 1991, 194, 330-344). For compound 15b (transposed), the longest wavelength emission observed from the phenoxide occurred near 770 nm.
Fluorescence was measured using a 15 μM solution of compound 15d in a solution that was 90% aqueous, 10% DMSO. […] For compound 15d (transposed), the longest wavelength emission observed from the phenoxide occurred near 780 nm (NaOH, pH 12).
Compounds 20b and 15g also were characterized by their fluorescence emission spectra. Fluorescence was measured using 15 μM solutions of each compound in a solution that was 90% aqueous, 10% DMSO. For compound 20b, the longest wavelength emission observed from the cation occurred near 640 nm at pH 7.4. For compound 15g (transposed), the longest wavelength emission observed from the cation occurred near 770 nm at pH 7.4.

The mark [5] stands for this setting: pH 6, predominantly neutral/phenolic form.
[6] abbreviates: NaOH (pH 12), anionic/phenoxide form, 90% aqueous 10% DMSO.
Where [7] appears, read: 40 μM in 50% DMSO:50% 25 mM pH 9 phosphate buffer.

Several values for one entry are separate records, joined by “and”; a condition that tells them apart may be missing. Equal values may be shown once.

Regarding `Cc1ccc(C)c(-c2c3ccc4cccc(O)c4c3oc3c2ccc2cccc(=O)c23)c1` [Compound 4a], the “Stability of absorption in the blood solution” value in data set [1] (blood solution) is “remained stable over extended periods of time”.

Regarding `COC(=O)c1ccccc1-c1c2ccc(=O)cc-2oc2c1ccc1cccc(O)c12` [Compound 15a], the “Red shift of absorption spectra from 3-1 transposition versus known regiochemistry” value (shortened to “Red shift of absorption spectra”) in data set [2] (90% aqueous 10% DMSO) is 10-55 nm. Besides, the Absorbance peak in data set [2] (setting [5]) came to 525 nm. In data set [3], the Absorption maximum was 501 nm and 536 nm; the “Bathochromic shift in the absorption spectrum versus known regiochemistry” value is given as 15 nm; the “Bathochromic shift in the fluorescence emission versus known regiochemistry” value is on record as 32 nm; the Emission maximum was 582 nm.

As to `COC(=O)c1ccccc1-c1c2ccc(=N)cc-2oc2c1ccc1cccc(O)c12` [Compound 15b], in data set [4], the “Enhancement of the Stokes shift by 3-1 transposition” value (shortened to “Enhancement of the Stokes shift”) is on record as “about 73 nm”, the Stokes shift result is recorded as “about 155 nm” and the “Red-shifted emission from 3-1 transposition versus known regiochemistry” value (shortened to “Red-shifted emission”) is recorded as “about 138 nm”. Further, the Longest wavelength emission in data set [4] (pH not stated) was approximately 770 nm. Besides, in data set [2] (90% aqueous 10% DMSO), the “Red shift of absorption spectra” value was 50-65 nm. Further, the Absorbance peak in data set [2] (setting [6]) was 615 nm. In data set [2] (setting [5]), the Absorbance peak amounted to 535 nm.

For `COC(=O)c1ccccc1-c1c2ccc(=[N+](C)C)cc-2oc2c1ccc1cccc(O)c12` [Compound 15d], in data set [4], the “Enhancement of the Stokes shift” value is “about 92 nm”, the Stokes shift result is “about 150 nm” and the “Red-shifted emission” value was “about 149 nm”. Moreover, in data set [4] (NaOH (pH 12), anion/phenoxide), the Longest wavelength emission is on record as approximately 780 nm. Moreover, the “Red shift of absorption spectra” value in data set [2] (90% aqueous 10% DMSO) is reported as 55-57 nm. The compound further came in with an Absorbance peak in data set [2] (setting [6]) of 630 nm. The compound further yielded an Absorbance peak in data set [2] (setting [5]) of 570 nm. Besides, in data set [1] (setting [7]), the λmax em is approximately 790 nm and the λmax ex is listed as approximately 690 nm. Besides, the “Time emission remained stable” value in data set [1] (5% whole blood) is given as “at least 1 hr”. Further, the “Loss of fluorescence on inclusion of whole blood” value in data set [1] (final blood concentration 5% by volume) is listed as “only minimal loss of fluorescence”.

As for `COC(=O)c1ccccc1-c1c2ccc(=N)cc-2oc2c1ccc1cccc(N)c12` [Compound 15g], in data set [4], the “Enhancement of the Stokes shift” value is listed as “about 100 nm”, the Stokes shift entry is on record as “about 200 nm” and the “Red-shifted emission” value was “about 130 nm”. The Longest wavelength emission in data set [4] (pH 7.4, cation) was approximately 770 nm. Further, the “Red shift of absorption spectra” value in data set [2] (90% aqueous 10% DMSO) is “about 30 nm”. In addition, the Absorbance peak in data set [2] (pH 7.4, 90% aqueous 10% DMSO) is 570 nm. In data set [1] (150 μM, 10% and 90% whole blood, excitation at 670 nm), the Emission spectrum maximum result was “about 750 nm”.

Regarding `COC(=O)c1ccccc1-c1c2ccc(=O)cc-2oc2c1ccc1cc(O)ccc12` [Compound 20a], the Absorbance peak in data set [2] (setting [5]) is 515 nm. In addition, in data set [3], the Absorption maximum was 487 nm and 521 nm; the Emission maximum stood at 550 nm.

Consider `COC(=O)c1ccccc1-c1c2ccc(=N)cc-2oc2c1ccc1cc(N)ccc12` [Compound 20b], for which the Stokes shift entry in data set [4] is given as “about 100 nm”. This compound also returned a Longest wavelength emission in data set [4] (pH 7.4, cation) of approximately 640 nm. This compound also displayed an Absorbance peak in data set [2] (pH 7.4, 90% aqueous 10% DMSO) of 540 nm.

As to `COC(=O)c1ccccc1-c1c2ccc(=O)cc-2oc2c1ccc1cc(O)ccc12` [Compound 20c], in data set [4], the Stokes shift result is “about 95 nm”. Besides, the Longest wavelength emission in data set [4] (NaOH (pH 12), anion/phenoxide) is given as approximately 640 nm. This compound also yielded an Absorbance peak in data set [2] (setting [6]) of 545 nm.

In the case of `O=C1OC2(c3ccccc31)c1ccc3cc(O)ccc3c1Oc1c2ccc2cc(O)ccc12` [Compound 21, Naphthofluorescein, reference compound], in data set [4], the Stokes shift result is listed as “about 80 nm”. The Longest wavelength emission in data set [4] (pH 9) was approximately 680 nm. For the same compound, the Absorbance peak in data set [2] (setting [6]) is 600 nm; in data set [2] (pH 7.4, 90% aqueous 10% DMSO), 590 nm.

In the case of `COC(=O)c1ccccc1-c1c2ccc3cc(O)ccc3c2oc2c1ccc1cc(=O)ccc12` [Compound 22, naphthofluorescein methyl ester], the Stokes shift result in data set [4] is given as “about 80 nm”. In addition, the Longest wavelength emission in data set [4] (pH 9) was approximately 690 nm. In data set [2] (setting [6]), the Absorbance peak was 610 nm. Besides, the Absorbance peak in data set [2] (pH 7.4, 90% aqueous 10% DMSO) came out at 605 nm. In data set [3], this compound had an Absorption maximum of 598 nm and an Emission maximum of 688 nm.
